Test system: MDA-MB-231 mammary cancer
Assay: Therapeutic test in mice bearing MDA-MB-231 mammary cancer (tumor volume)
Format: in vivo, nude mice
Conditions: tail intravenous injection once every 4 days; treatment duration 36 days
Experimental: 0.2 ml of MDA-MB-231 mammary cancer cells (2×10^5) was subcutaneously injected to the axillary region near the forelimb of nude mice, and 2 weeks later, the tumor model was successfully established.
In the therapeutic test, corresponding normal saline, free mitoxantrone, drug-loaded mPEG-PLGA-PLL nanoparticles and drug-loaded mPEG-PLGA-PLL-RGD nanoparticles were given once every 4 days through tail intravenous injection, the tumor volume was subsequently measured, and the treatment duration was 36 days.

Compound: O=C1c2c(O)ccc(O)c2C(=O)c2c(NCCNCCO)ccc(NCCNCCO)c21 [free mitoxantrone chloride, mitoxantrone chloride]
- tumor inhibition rate: 10.32%
